One assay concerns BT474 tumor cells. The assay can be described thus: Method C: Cell Growth Inhibition Assay (CellTiter-Glo), BT474. The assay is classed as cell-based. As to conditions: Homo sapiens, BT-474, 72 h, 3 days, 4-parameter fit. How it is done:
(§1) Human breast tumor cells (BT474) were cultured in RPMI (Mediatech 50-011-PB), containing 10% FBS (JRH Biosciences 12176) and 1% penicillin-streptomycin (Invitrogen 15140). Human head and neck tumor cells (HN5) were cultured in high glucose DMEM (Mediatech 50-013-PB) containing 10% FBS and 1% penicillin-streptomycin. Human colon tumor cells (Colo205) were cultured in RPMI (Mediatech 50-020-PB) containing 10% FBS and 1% penicillin-streptomycin. Human melanoma cancer cells (SK-MEL-28) were cultured in EMEM with nonessential amino acids (Mediatech 50-011-PB) containing 10% FBS, 1% sodium pyruvate (JT Baker 3354-04), and 1% penicillin-streptomycin. Human melanoma cancer cells (A375P F11s) were cultured in RPMI (Mediatech 50-020-PB) containing 10% FBS, 1% sodium pyruvate, and 1% penicillin-streptomycin. Human colon cancer cells (HT-29) were cultured in high glucose DMEM (Mediatech 50-013-PB) containing 10% FBS and 1% penicillin-streptomycin. Human melanoma cancer cells (SK-MEL-3) were cultured in McCoy's 5A (50-025-PB) containing 15% FBS, and 1% penicillin-streptomycin. All cell lines were maintained at 37° C. in a humidified 5% CO2, 95% air incubator. Cells were harvested using trypsin/EDTA (Invitrogen 25200), counted using an haemocytometer, and plated. For 96-well assays (using white full-area NUNC plates cat. #136102), cells were plated in 105 μL at the following densities (cells/well): HN5, 500; Colo205, 500; SK-MEL-28, 500; A375P-F11s, 500; HT-29, 500; SK-MEL-3, 500; and BT474, 3000. For 384-well assays (white full-area NUNC plates, cat. #781080), cells were plated in 48 μL at the following densities (cells/well): HN5, 500; Colo205, 500; SK-MEL-28, 500; A375P-F11s, 500; HT29, 500; SK-MEL-3, 500; and BT474, 2000.
(§2) The next day, compounds were diluted as follow: For 96-well assays, 13.5 μL of compound in DMSO were diluted using nine (9) serial 1:3 dilutions of 4.5 μL in 9 μL of DMSO. Medium (270 μl/well of RPMI with 10% FBS and 1% penicillin-streptomycin) was added to the plates. Aliquots (7 μl) were added to cells in the final assay giving a final DMSO concentration of 0.2%. For 384-well assays, 15 μL of compound in DMSO were diluted using nine (9) serial 1:3 dilutions of 5 μL in 10 μL of DMSO, followed by a further dilution of 5 μL of compound with 95 μL of medium, of which 2 μL were added to cells in the final assay giving a final DMSO concentration of 0.2%. Cells were incubated at 37° C., 5% CO2 for 3 days.
(§3) Total ATP was measured (as a surrogate estimate of cell number) using CellTiter-Glo® reagent (Promega G7571). Briefly, plates were removed from the incubator and allowed to equilibrate to room temperature for 30 minutes. CellTiter-Glo® (25 μL or 55 μL for 384-well or 96-well assays, respectively) reagent was added to each well and plates were shaken on an orbital plate shaker for 2 mins. Plates were incubated without shaking for a further 30 mins and read on an LJL Analyst GT reader in luminometer mode with an integration time of 0.5 seconds per well. Percent inhibition of cell growth was calculated relative to DMSO vehicle-treated control wells. Concentration of compound required to give 50% inhibition of vehicle-treated control cell growth (IC50) was interpolated using a 4-parameter fit for determining IC50 using the following equation: Y=A+((B−A)/(1+((C/X)̂D))) where X=IC50.
A general note: Cellular ATP, detected with luciferase, serves as a proxy for viable cell number.

For the next assay, the system named is HN5 tumor cells. Put plainly: Method C: Cell Growth Inhibition Assay (CellTiter-Glo), HN5. As to conditions: Homo sapiens, 72 h, 3 days, 4-parameter fit. It is filed as cell-based. How it is done: as §1, §2, §3
Another assay addresses T1, EGFR (Homo sapiens, UniProt P00533).
T1 construct: made in house; host or cells: baculovirus expression system
Put plainly: EGFR substrate phosphorylation assay (HTRF). As to conditions: Method (A): Enzyme Mix incubated with compound at 20° C. for 1 hr, reaction started by adding Substrate Mix. The assay is classed as biochemical. The method, then:
(§4) Compounds of the present invention were tested for EGFR and ErbB-2 protein tyrosine kinase inhibitory activity in substrate phosphorylation assays using enzymes purified from a baculovirus expression system. Reagent production was conducted essentially as described in Brignola, P. S., et al., (2002) J. Biol. Chem. 277(2):1576-1585.
(§5) The method measures the ability of the isolated enzyme to catalyse the transfer of the gamma-phosphate from ATP onto the tyrosine residue of a biotinylated synthetic peptide referenced “Peptide C” in Brignola, P. S., et al., (2002) J. Biol. Chem. 277(2):1576-1585. The extent of tyrosine phosphorylation was measured using an anti-phosphotyrosine antibody, and quantified by homogenous time-resolved fluorescence (HTRF).
(§6) Reactions were performed in black 384-well polystyrene flat-bottom plates in a final volume of 20 μl. Assays were performed by adding 10 μl of each of the following solutions, Substrate Mix and Enzyme Mix: The Substrate Mix contained 100 mM 3-[N-morpholino]propanesulfonic acid (MOPS) (pH 7.5), 2 mM MnCl2, 20 μM ATP, 0.01% Tween-20, 0.1 mg/mL (BSA), 0.8 uM peptide substrate, and 1 mM dithiothreitol. The Enzyme Mix contained 100 mM MOPS (pH 7.5); 0.01% Tween-20; 0.1 mg/mL BSA, and either 0.8 nM EGFR, 10 nM ErbB2, or 1 nM ErbB4
(§7) During the course of these studies, two separate methods have been used to measure the potency of compounds. In Method A (indicated as “(A)” in the tables below), the Enzyme Mix was added to the compound plates and the plates were incubated at 20° C. for 1 hr. The reactions were then started by adding the Substrate Mix. In Method B (indicated as “(B)” in the tables below), the Substrate Mix was added to the compound plates first, then the reaction was started by adding the Enzyme Mix.
(§8) After initiating the reaction with either method describe above, the reactions were allowed to proceed for 90 minutes at 20° C. The reactions were then terminated by the addition of 20 μL 100 mM EDTA to each well. 40 μL/well of HTRF detection mix were added to the assay plates. The final concentrations of the detection reagents were: 100 mM HEPES (pH7.5), 0.1 mg/mL BSA, 15 nM streptavidin-labeled allophycocyanin (PerkinElmer), and 1 nM europium-labeled anti-phosphotyrosine antibody (PerkinElmer). Assay plates were left unsealed and were counted in a Wallac Multilabel Counter 1420 (PerkinElmer).
(§9) Compounds under analysis were dissolved in dimethylsulfoxide (DMSO) to 1.0 mM and serially diluted 1 to 3 with DMSO through twelve dilutions. 1 μL of each concentration was transferred to the corresponding well of an assay plate. This creates a final compound concentration range from 0.00027 to 47.6 μM.
(§10) The data for dose responses were plotted as % Inhibition calculated with the data reduction formula 100*(1−(U1−C2)/(C1−C2)) versus concentration of compound where U1 is the unknown value, C1 is the average control value obtained for 4.76% DMSO, and C2 is the average control value obtained for 0.035 M EDTA. Data were fitted with a curve described by:
(§11) where Vmax is the upper asymptote, Y2 is the Y intercept, and K is the IC50. The results for each compound were recorded as pIC50s, calculated as follows: […]
(In TR-FRET formats the signal depends on donor and acceptor labels being close together.)

Another assay concerns the target T2, ErbB2 (Homo sapiens, UniProt P04626).
T2 construct: made in house; host or cells: baculovirus expression system
Put plainly: ErbB-2 substrate phosphorylation assay (HTRF). It is filed as biochemical. The conditions noted are these: Method (A): Enzyme Mix incubated with compound at 20° C. for 1 hr, reaction started by adding Substrate Mix. How it is done:
as §4, §5, §6, §7, §8, §9, §10, §11

In another assay the test system is Colo205 tumor cells. The assay can be described thus: Method C: Cell Growth Inhibition Assay (CellTiter-Glo), Colo205. It is filed as cell-based. The conditions noted are these: Homo sapiens, COLO 205, 72 h, 3 days, 4-parameter fit. How it is done:
as §1, §2, §3

Another assay concerns SK-MEL-28 tumor cells. The assay can be described thus: Method C: Cell Growth Inhibition Assay (CellTiter-Glo), SK-MEL-28. The assay is classed as cell-based. As to conditions: Homo sapiens, SK-MEL-28, 72 h, 3 days, 4-parameter fit. The method, then: as §1, §2, §3

In general, IC50 refers to the concentration that gives 50% inhibition.

Counter-ions that a name gives are not always drawn. Bounds are passed on as bounds.

T1 sequence (P00533 25-1210): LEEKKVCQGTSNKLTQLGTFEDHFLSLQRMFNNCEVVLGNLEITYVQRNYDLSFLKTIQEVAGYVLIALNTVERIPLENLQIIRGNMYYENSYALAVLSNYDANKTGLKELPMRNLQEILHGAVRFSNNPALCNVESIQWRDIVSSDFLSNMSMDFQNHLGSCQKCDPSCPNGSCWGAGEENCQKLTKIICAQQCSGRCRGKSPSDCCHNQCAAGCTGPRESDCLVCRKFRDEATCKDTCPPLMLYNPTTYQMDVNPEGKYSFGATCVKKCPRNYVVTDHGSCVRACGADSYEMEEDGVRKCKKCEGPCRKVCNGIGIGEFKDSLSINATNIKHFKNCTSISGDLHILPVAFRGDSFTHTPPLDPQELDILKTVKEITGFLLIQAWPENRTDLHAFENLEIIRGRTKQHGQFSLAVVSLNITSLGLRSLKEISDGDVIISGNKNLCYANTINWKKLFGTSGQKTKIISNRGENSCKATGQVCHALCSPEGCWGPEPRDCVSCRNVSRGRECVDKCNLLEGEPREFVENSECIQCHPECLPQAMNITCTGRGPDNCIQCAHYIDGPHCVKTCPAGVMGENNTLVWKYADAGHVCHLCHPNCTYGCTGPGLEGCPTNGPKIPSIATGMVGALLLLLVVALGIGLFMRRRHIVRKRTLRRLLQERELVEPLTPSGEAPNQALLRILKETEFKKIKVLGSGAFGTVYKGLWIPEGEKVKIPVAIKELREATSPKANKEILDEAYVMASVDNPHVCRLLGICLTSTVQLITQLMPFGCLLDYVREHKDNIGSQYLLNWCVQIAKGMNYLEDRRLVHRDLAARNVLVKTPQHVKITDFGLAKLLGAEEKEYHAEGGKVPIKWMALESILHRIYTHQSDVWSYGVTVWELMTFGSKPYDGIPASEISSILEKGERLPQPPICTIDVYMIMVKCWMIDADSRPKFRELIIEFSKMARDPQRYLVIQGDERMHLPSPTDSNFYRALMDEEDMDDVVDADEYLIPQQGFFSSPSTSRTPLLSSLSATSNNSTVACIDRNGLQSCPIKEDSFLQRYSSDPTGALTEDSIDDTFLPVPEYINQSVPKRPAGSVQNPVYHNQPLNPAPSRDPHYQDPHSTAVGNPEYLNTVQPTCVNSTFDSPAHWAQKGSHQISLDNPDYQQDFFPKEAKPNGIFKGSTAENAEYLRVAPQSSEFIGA
T2 sequence (P04626 23-1255): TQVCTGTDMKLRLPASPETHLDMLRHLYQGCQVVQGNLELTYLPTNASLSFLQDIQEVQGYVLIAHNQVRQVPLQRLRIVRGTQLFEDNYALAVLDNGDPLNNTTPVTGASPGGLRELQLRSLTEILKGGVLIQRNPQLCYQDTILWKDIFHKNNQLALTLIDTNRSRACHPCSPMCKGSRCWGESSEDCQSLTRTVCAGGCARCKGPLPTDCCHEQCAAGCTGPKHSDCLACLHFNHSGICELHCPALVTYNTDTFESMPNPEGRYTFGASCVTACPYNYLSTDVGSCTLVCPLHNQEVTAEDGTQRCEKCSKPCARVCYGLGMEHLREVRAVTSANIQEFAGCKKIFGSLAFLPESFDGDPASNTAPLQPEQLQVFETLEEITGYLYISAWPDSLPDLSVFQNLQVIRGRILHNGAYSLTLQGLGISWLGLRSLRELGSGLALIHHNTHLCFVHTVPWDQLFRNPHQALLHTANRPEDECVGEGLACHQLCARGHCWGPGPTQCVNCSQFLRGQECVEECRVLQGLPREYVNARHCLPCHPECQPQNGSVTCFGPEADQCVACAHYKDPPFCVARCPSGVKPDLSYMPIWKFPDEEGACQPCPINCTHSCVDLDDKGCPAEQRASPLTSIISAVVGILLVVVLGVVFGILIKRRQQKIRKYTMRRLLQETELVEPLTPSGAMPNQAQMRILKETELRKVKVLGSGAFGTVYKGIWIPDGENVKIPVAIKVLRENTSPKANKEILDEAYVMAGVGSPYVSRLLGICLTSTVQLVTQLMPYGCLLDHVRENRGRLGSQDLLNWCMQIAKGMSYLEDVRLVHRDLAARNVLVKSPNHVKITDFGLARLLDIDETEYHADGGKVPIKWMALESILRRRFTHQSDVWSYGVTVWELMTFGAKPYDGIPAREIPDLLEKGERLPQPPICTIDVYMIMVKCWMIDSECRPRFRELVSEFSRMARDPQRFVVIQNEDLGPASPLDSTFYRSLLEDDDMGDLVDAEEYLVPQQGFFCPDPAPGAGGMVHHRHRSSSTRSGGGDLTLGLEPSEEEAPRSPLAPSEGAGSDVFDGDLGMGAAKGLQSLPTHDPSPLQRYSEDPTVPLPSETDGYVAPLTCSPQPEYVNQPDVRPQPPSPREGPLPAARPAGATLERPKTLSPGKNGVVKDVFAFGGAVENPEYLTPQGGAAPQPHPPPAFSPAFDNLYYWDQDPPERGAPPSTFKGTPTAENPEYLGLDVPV

Consider `CN(C)CCOc1ccc(Nc2nccc(-c3sc(-c4ccc(O)cc4)nc3-c3cccc(NC(=O)c4c(F)cccc4F)c3)n2)cc1Cl` [Example 139, N-{3-[5-{2-[(3-Chloro-4-{[2-(dimethylamino)ethyl]oxy}phenyl)amino]-4-pyrimidinyl}-2-(4-hydroxyphenyl)-1,3-thiazol-4-yl]phenyl}-2,6-difluorobenzamide], for which the concentration for half-maximal inhibition (IC50) in the assay with BT474 tumor cells is 100 to 1000 nM; in the assay on HN5 tumor cells, 100 to 1000 nM; on EGFR, less than 100 nM; on ErbB2, less than 100 nM; in the assay on Colo205 tumor cells, 100 to 1000 nM.

Regarding `CCN(CC)CCOc1cccc(Nc2nccc(-c3scnc3-c3cccc(NC(=O)c4cc(F)ccc4F)c3)n2)c1` [Example 97, N-[3-(5-{2-[(3-{[2-(Diethylamino)ethyl]oxy}phenyl)amino]-4-pyrimidinyl}-1,3-thiazol-4-yl)phenyl]-2,5-difluorobenzamide], the IC50 was more than 1000 nM in the assay with SK-MEL-28 tumor cells; 100 to 1000 nM with BT474 tumor cells; 100 to 1000 nM in the assay on HN5 tumor cells; less than 100 nM at EGFR; less than 100 nM at ErbB2; more than 1000 nM with Colo205 tumor cells.

With `Cc1nc(-c2cccc(NC(=O)c3c(F)cccc3F)c2)c(-c2ccnc(Nc3cccc(OCCN(C)C)c3)n2)s1` [Example 102, N-[3-(5-{2-[(3-{[2-(Dimethylamino)ethyl]oxy}phenyl)amino]-4-pyrimidinyl}-2-methyl-1,3-thiazol-4-yl)phenyl]-2,6-difluorobenzamide], the IC50 in the assay on BT474 tumor cells was 100 to 1000 nM; in the assay on HN5 tumor cells, 100 to 1000 nM; on EGFR, less than 100 nM; on ErbB2 it was less than 100 nM; in the assay on Colo205 tumor cells, more than 1000 nM.

For `NS(=O)(=O)CCc1cccc(Nc2nccc(-c3scnc3-c3cccc(NC(=O)c4cc(F)ccc4F)c3)n2)c1` [Example 100, N-(3-{5-[2-({3-[2-(Aminosulfonyl)ethyl]phenyl}amino)-4-pyrimidinyl]-1,3-thiazol-4-yl}phenyl)-2,5-difluorobenzamide trifluoroacetate], the IC50 with BT474 tumor cells is less than 100 nM; with HN5 tumor cells, less than 100 nM; on EGFR it was less than 100 nM; at ErbB2 it was less than 100 nM; in the assay on Colo205 tumor cells it was 100 to 1000 nM.

Take `CN1CCc2ccc(Nc3nccc(-c4sc(CS(=O)(=O)C(C)(C)C)nc4-c4cccc(NC(=O)c5c(F)cccc5F)c4)n3)cc2C1` [Example 120, N-[3-(2-{[(1,1-Dimethylethyl)sulfonyl]methyl}-5-{2-[(2-methyl-1,2,3,4-tetrahydro-7-isoquinolinyl)amino]-4-pyrimidinyl}-1,3-thiazol-4-yl)phenyl]-2,6-difluorobenzamide]: the IC50 is more than 1000 nM in the assay on SK-MEL-28 tumor cells; less than 100 nM with BT474 tumor cells; less than 100 nM on EGFR; less than 100 nM at ErbB2; 100 to 1000 nM in the assay on Colo205 tumor cells.

As for `CN(C)CCOc1ccc(Nc2nccc(-c3sc(NS(=O)(=O)CC(F)(F)F)nc3-c3cccc(NC(=O)c4c(F)cccc4F)c3)n2)cc1` [Example 35, N-[3-(5-{2-[(4-{[2-(Dimethylamino)ethyl]oxy}phenyl)amino]-4-pyrimidinyl}-2-{[(2,2,2-trifluoroethyl)sulfonyl]amino}-1,3-thiazol-4-yl)phenyl]-2,6-difluorobenzamide], the 50% inhibitory concentration (IC50) with SK-MEL-28 tumor cells was more than 1000 nM; with BT474 tumor cells, more than 1000 nM; at EGFR it was less than 100 nM; on ErbB2, less than 100 nM; with Colo205 tumor cells, more than 1000 nM.

Consider `CN1CCN(c2nc(-c3cccc(NC(=O)c4c(F)cccc4F)c3)c(-c3ccnc(Nc4cccc(CN5CCCC5)c4)n3)s2)CC1` [Example 46, 2,6-Difluoro-N-{3-[2-(4-methyl-1-piperazinyl)-5-(2-{[3-(1-pyrrolidinylmethyl)phenyl]amino}-4-pyrimidinyl)-1,3-thiazol-4-yl]phenyl}benzamide], for which the half-maximal inhibitory concentration (IC50) is more than 1000 nM with SK-MEL-28 tumor cells; 100 to 1000 nM with BT474 tumor cells; less than 100 nM on EGFR; less than 100 nM on ErbB2; 100 to 1000 nM in the assay with Colo205 tumor cells.

Regarding `CC(C)(C)S(=O)(=O)Cc1nc(-c2cccc(NC(=O)c3c(F)cccc3F)c2)c(-c2ccnc(Nc3ccc(OCCN4CCCC4)c(Cl)c3)n2)s1` [Example 119], the IC50 in the assay with SK-MEL-28 tumor cells was more than 1000 nM; in the assay on BT474 tumor cells it was 100 to 1000 nM; on EGFR it was less than 100 nM; on ErbB2, less than 100 nM; in the assay with Colo205 tumor cells, 100 to 1000 nM.

Regarding `CN(C)CCOc1cccc(Nc2nccc(-c3sc(N)nc3-c3cccc(C(=O)Nc4c(F)cccc4F)c3)n2)c1` [Example 76, 3-(2-Amino-5-{2-[(3-{[2-(dimethylamino)ethyl]oxy}phenyl)amino]-4-pyrimidinyl}-1,3-thiazol-4-yl)-N-(2,6-difluorophenyl)benzamide], the half-inhibitory concentration (IC50) with BT474 tumor cells was less than 100 nM; in the assay on HN5 tumor cells it was 100 to 1000 nM; on EGFR, less than 100 nM; at ErbB2, less than 100 nM; with Colo205 tumor cells, 100 to 1000 nM.

Source of the values: patent US20110098296A1, “Thiazole And Oxazole Kinase Inhibitors” (priority 2007, published 2011).
